In the oligonucleotide strings, read from the 5' end, every base follows the letter of its sugar. An asterisk marks phosphorothioate; unmarked linkages are phosphodiester. Other units and linkages are bracketed, terminal groups are in braces. A string of capitals states the bases alone. e = 2'-O-(2-methoxyethyl) (MOE); [5mC] = 5-methylcytosine
Assays:
[1] = system: TF-1 cells; assay: Apoptosis induction in TF-1 cells, Annexin-V staining; assay type: cell-based, human; details: 48 hours, IL-5 0.5 ng/ml
Protocol: 1×10^6 TF-1 cells cultured in IL-5 (0.5 ng/ml) were collected 48 hours following oligonucleotide treatment (transfection was by electroporation as described in previous examples) and phosphatidylserine expression was detected as a measure of apoptosis using the Annexin-V staining kit (Clontech, Palo Alto, Calif.) according to the manufacturer's instructions. Briefly, cells were resuspended in 0.2 ml of staining buffer (10 mM Hepes, pH 7.4, 140 mM NaCl, 5 mM CaCl2) and […] of propidium iodide (50 μg/ml) and 5 μl of Annexin V reagent were added at 4° C. for 10 minutes. The samples were diluted with FacsFlow (Becton Dickinson, Franklin Lakes N.J.) buffer and analyzed on a Becton Dickinson FACScan.

[2] = system: Human IL-5 receptorα membrane form mRNA; assay: Human IL-5 receptorα membrane form mRNA expression (18 hr); assay type: cell-based; design: % INHIB'N, human IL-5 receptorα membrane form mRNA / % of CONTROL, human IL-5 receptorα membrane form mRNA: concentration or dose not given beside the values
Excerpt: mRNA transcripts encoding the membrane form of the human IL-5 receptorα contain exons 1-10 and 12-14. Exon 11 is spliced out. It is, therefore, possible to target sequences in exons 1-10 which are common to both soluble and membrane forms of the receptor, or to selectively target sequences only present in the membrane form (exons 12-14). Oligonucleotides were also designed to target various intron/exon boundaries downstream of exon 11, with the intention of preventing successful splicing out of exon 11 and thus redirecting splice products away from the membrane form and in favor of the soluble form of IL-5 receptorα.
(§1) A series of oligonucleotides were designed to target various splice sites or (intron-exon boundaries) in the IL-5 receptor mRNA.

[3] = system: TF-1 cells; assay: IL-5-induced TF-1 cell proliferation, [3H]-thymidine incorporation; assay type: cell-based, human; details: for % of control thymidine incorporation: compared to untreated controls
Protocol: 2.5×10^4 TF-1 cells were incubated in 96-well plates in 200 μl complete RPMI in the absence of IL-5 for 16 hours following electroporation. IL-5 (0.5 ng/ml) was added and the cultures were pulsed with 1 μCi of [^3H]-thymidine for the last 8 hours of a 48-hour culture period. The cells were harvested on glass fiber filters and analyzed for thymidine incorporation (proportional to cell proliferation) by liquid scintillation counting.
Results are compared to thymidine incorporation in untreated controls.

[4] = system: Human IL-5 receptorα; assay: Human IL-5 receptorα protein expression on the cell surface (36 hr), TF-1 cells; assay type: cell-based; design: % INHIB, human IL-5 receptorα protein on the cell surface / % of CONTROL, human IL-5 receptorα protein on the cell surface: concentration or dose not given beside the values
Excerpt: as §1
ISIS 16746, 16748, 16755 and 16758 inhibited human IL-5 receptorα protein by over 50% in this assay and are therefore preferred. ISIS 16758 and 16755 were chosen for further study.

[5] = system: human bcl-xs mRNA; assay: bcl-xs mRNA in A549 cells, RIBOQUANT RNase protection; assay type: cell-based; details: 200 nM oligonucleotide (Table 15)
Excerpt: (§2) In accordance with the present invention, a series of oligonucleotides were designed to target different regions of human bcl-x RNA, using published sequences (Boise, L. H., et al., 1993, Cell 74, 597-608; Genbank Accession No. L20121, locus name “HSBCLXL,” incorporated herein as SEQ ID NO: 39). Antisense oligonucleotides were designed to target areas of exon 1 and exon 2 of human bcl-x, particularly around the exon 1/exon 2 splice site and in sequence regions present in bcl-xl but not in bcl-xs. All backbone linkages are phosphorothioates; All 2′MOE cytosines are 5-methylcytosines.
(§3) Oligonucleotides were evaluated for their respective effects on bcl-xs and bcl-xl3 mRNA levels in A549 cells along with total bcl-x mRNA levels, using the RIBOQUANT™ RNase protection kit (Pharmingen, San Diego Calif.). All assays were performed according to manufacturer's protocols.
(§4) A “walk” was done in this region with 20mer 2′-MOE phosphorothioate oligonucleotides targeted to sequences whose 5′ ends were 24, 26, 29, 31, 33, 37, 39, 41, 43, 44, 45 and 47 bases upstream of the splice site. These oligonucleotides were screened as before at a dose of 200 nM oligonucleotide for effect on short and long bcl-x transcripts.

[6] = system: human bcl-x mRNA; assay: Total bcl-x mRNA and bcl-xs/bcl-xl ratio in A549 cells, RNase protection; assay type: cell-based
[7] = system: human bcl-xl mRNA; assay: bcl-xl mRNA in A549 cells, RIBOQUANT RNase protection; assay type: cell-based; details: 200 nM oligonucleotide (Table 15)
Excerpt: as §2, §3, §4

[8] = system: human bcl-x mRNA; assay: Total bcl-x mRNA and bcl-xs/bcl-xl ratio in A549 cells, RNase protection; assay type: cell-based; details: for bcl-xs/bcl-xl: 200 nM oligonucleotide (Table 15); for ratio of bcl-xs/bcl-xl: Oligo Concentration 200 (unit not given)
Excerpt: as §2, §3, §4

[9] = system: E-selectin mRNA (Type III polyadenylation signal and site); assay: E-selectin transcript forms by Northern blot in TNF-α-induced HUVEC; assay type: cell-based, human; details: increasing oligonucleotide dose, TNF-α 2 hours
Protocol: (§5) HUVEC (Clonetics, San Diego, Calif.) were cultivated in endothelial basal media supplemented with 10% fetal bovine serum. Cells were treated with oligonucleotides as described previously (Chiang, 1991, J. Biol. Chem. 27:18162-18171; Vickers, 2000, Nucleic Acids Res. 28:1340-1347). Briefly, cells were incubated with a mixture of Lipofectin (Gibco BRL, Gaithersburg, Md.) and oligonucleotide for 4 hours. Cells were incubated for 2-24 hours, then treated with 5 ng/ml TNF-α for 2-3 hours to induce expression of E-selectin. Cells were then washed extensively with phosphate buffered saline (PBS), fresh complete media was added and cells were incubated at 37° C. until harvested.
(§6) Total RNA was harvested from HUVEC at various times following TNF-α induction using a ToTALLY RNA kit (Ambion) according to the manufacturer's protocol). For Northern blots, RNA was separated on a 1.2% agarose gel containing 1.1% formaldehyde, then transferred to nylon membranes. Blots were hybridized with [^32P]-dCTP random prime labeled cDNA probes specific for E-selectin or […] (G3PDH) for 2 hours in Rapid-hyb solution (Amersham). Blots were washed with 2×SSC containing 0.1% SDS at room temperature, followed by 0.1×SSC containing 0.1% SDS at 60° C. Quantitation of RNA expression was performed using a Molecular Dynamics PhosphorImager. Anchored reverse transcriptase polymerase chain reaction (RT/PCR) was performed essentially as described by Chu et al. (supra.).
HUVEC were treated with 2′-O-methoxyethyl (MOE)/phosphorothioate antisense oligonucleotides directed to the Type III polyadenylation signal and site (Table 1A) as described above. After about 24 hours, cells were treated with TNF-α to induce E-selectin expression. Cells were harvested after 2 hours and RNA was isolated. E-selectin expression was analyzed by Northern blotting. […] With increasing oligonucleotide dose, the longer Type III message decreased while a shorter message increased (FIG. 2). This shorter message most likely represents a combination of Type I and II messages, because the Type II message is just 158 bases longer than the Type I message, and the difference in sizes cannot be resolved on the gel which was used.

[10] = system: E-selectin; assay: E-selectin cell surface protein expression by flow cytometry in HUVEC; assay type: cell-based, human; details: after addition of TNF-α
Protocol: as §5
Following oligonucleotide treatment, cells were detached with D-PBS (without calcium and magnesium) supplemented with 4 mM EDTA. Cells were centrifuged at 5,000 rpm for 1 minute and washed in 2% bovine serum albumin (BSA), 0.2% sodium azide in D-PBS at 4° C. E-selectin-phycoerythrin antibody (Ancell) was then added at 1:100 in 0.1 ml of the above buffer, and incubated for 30 min at 4° C. in the dark. Cells were washed again as above and resuspended in 0.3 ml of PBS buffer with 0.5% formaldehyde. Cells were analyzed for E-selectin expression on a FACScan (Becton-Dickinson). Results are expressed as percentage of control expression based upon the mean fluorescence intensity.
The treated cells were stimulated with TNF-α for 2 hours, then analyzed for E-selectin protein expression by flow cytometry. […] Results at the protein level are not as dramatic as at the RNA level due to the fact that the Type III message remains the predominant RNA species present (FIG. 2). Any change in protein stability resulting from the presence of the type I/II message would likely be partially masked by the more abundant Type III RNA.

[11] = system: E-selectin mRNA; assay: Non-quantitative RT-PCR of E-selectin Type I, II and III transcripts in HUVEC; assay type: cell-based, human; details: relative to untreated cells, 200 nM stated for ISIS 106344
Protocol: as §6
To determine if processing could be controlled more specifically, oligonucleotides were also designed to the upstream polyadenylation signals. Non-quantitative RT-PCR was used to distinguish among the three forms of the message. In the absence of oligonucleotide, all three types of transcript were detected. […] This difference may be due to variation in the efficiency of PCR amplification on the varying length products, with the shorter Type I and II messages being more efficiently amplified than the Type III product. […] To determine if the effects of ISIS 106344 were unique, antisense oligonucleotides were designed to the Type I and Type II polyadenylation sites.
To evaluate whether treatment with two oligonucleotides would result in the production of a single species of E-selectin message, HUVEC were treated with ISIS 106344, and either ISIS 135568 or ISIS 135570 (150 nM each). […] Cells were also treated with both ISIS 135568 and ISIS 135570.

[12] = Oligo Concentration 50 (unit not given)
[13] = Oligo Concentration 100 (unit not given)
[14] = Oligo Concentration 400 (unit not given)

## 16758 (antisense eT*e[5mC]*eA*eT*e[5mC]*eA*eT*eT*eT*e[5mC]*e[5mC]*eT*eG*eG*eT*eG*eG*eA*eA*eA) [compound 16758]
[1]; oligo dose 10 μM
  % Apoptotic cells: 33.1%
[1]; oligo dose 15 μM
  % Apoptotic cells: 40.1%
[1]; oligo dose 20 μM
  % Apoptotic cells: 50.4%
[2]; 18 hr
  % of CONTROL, human IL-5 receptorα membrane form mRNA: 176%
[3]; oligo dose 10 μM
  % of control thymidine incorporation: 42.8%
[3]; oligo dose 15 μM
  % of control thymidine incorporation: 39.2%
[3]; oligo dose 20 μM
  % of control thymidine incorporation: 19.9%
[4]; 36 hr
  % INHIB, human IL-5 receptorα protein on the cell surface: 94.5%
  % of CONTROL, human IL-5 receptorα protein on the cell surface: 5.5%

## 18011 (eT*e[5mC]*eA*eG*e[5mC]*eA*eG*eT*eT*eA*e[5mC]*eT*eT*eG*eT*eG*eT*eA*eA*eA) [compound 18011]
[1]; oligo dose 10 μM
  % Apoptotic cells: 19%
[1]; oligo dose 15 μM
  % Apoptotic cells: 23.6%
[1]; oligo dose 20 μM
  % Apoptotic cells: 21.8%
[3]; oligo dose 10 μM
  % of control thymidine incorporation: 95.6%
[3]; oligo dose 15 μM
  % of control thymidine incorporation: 97.9%
[3]; oligo dose 20 μM
  % of control thymidine incorporation: 84.6%

## 22783 (e[5mC]*eT*eG*eG*eA*eT*e[5mC]*e[5mC]*eA*eA*eG*eG*e[5mC]*eT*e[5mC]*eT*eA*eG*eG*eT) [compound 22783]
[5]
  % CONTROL bcl-xs: 247%
[6]; [12]
  ratio of bcl-xs/bcl-xl: 3
[6]; [13]
  ratio of bcl-xs/bcl-xl: 2
[6]; [14]
  ratio of bcl-xs/bcl-xl: 24
[6]; Oligo Concentration 600 (unit not given)
  ratio of bcl-xs/bcl-xl: 28
[7]
  % CONTROL bcl-xl: 47%
[8]; A549 cells
  bcl-xs/bcl-xl: 5.25
[8]; A549 cells, no oligo 17.56
  bcl-xs/bcl-xl (%): 293.1%
[8]
  ratio of bcl-xs/bcl-xl: 7

## 26066 (ATCCAAGGCTCTAGGTGGTC; all 2'-MOE, all phosphorothioate, methylation of C not given here) [compound 26066]
[5]
  % CONTROL bcl-xs: 400%
[6]; [12]
  ratio of bcl-xs/bcl-xl: 6
[6]; [13]
  ratio of bcl-xs/bcl-xl: 11
[6]; [14]
  ratio of bcl-xs/bcl-xl: 25
[7]
  % CONTROL bcl-xl: 26%
[8]; A549 cells
  bcl-xs/bcl-xl: 15.38
[8]
  ratio of bcl-xs/bcl-xl: 24

## ISIS 16758: TCATCATTTCCTGGTGGAAA, SEQ ID 35; I11/E12; uniform 2′-MOE (antisense eT*e[5mC]*eA*eT*e[5mC]*eA*eT*eT*eT*e[5mC]*e[5mC]*eT*eG*eG*eT*eG*eG*eA*eA*eA)
[2]
  effect on IL-5 receptorα mRNA levels: without reducing mRNA levels
[3]; TF-1 cells
  cell proliferation in response to IL-5 (summary): greatly reduces cellular response to IL-5
[4]; 36 hr
  % INHIB, human IL-5 receptorα protein on the cell surface: over 50%
[4]; TF-1 cells, read-out: IC50 for reduction of IL-5 receptorα cell surface protein
  IC50: ~5 µM

## ISIS 106345: AGAAAGAGACTTAACACAGA, SEQ ID 67; uniformly 2′-MOE phosphorothioate; E-selectin Type III poly(A) site (all 2'-MOE, all phosphorothioate, methylation of C not given here)
[9]
  longer Type III E-selectin message (Northern blot): decreased
  shorter E-selectin message (Type I and II) (Northern blot): increased

## ISIS 106346: CATCAGAACTTATATAGTCA, SEQ ID 68; 106344 mismatch control (all 2'-MOE, all phosphorothioate, methylation of C not given here) [reference compound]
[10]
  time of maximal E-selectin protein expression: four hours after addition of TNF-α

## ISIS 135568: GCTTTTATTAGTTCAAAACGTTTGG, SEQ ID 70; E-selectin Type II poly(A) signal (all 2'-MOE, all phosphorothioate, methylation of C not given here)
[11]
  Type I E-selectin message (RT-PCR): corresponding increases
  Type II E-selectin message (RT-PCR): sharp decrease
  Type III E-selectin message (RT-PCR): corresponding increases

## ISIS 135570: CAGAACTTTATTCTGGTTAACATCATG, SEQ ID 71; E-selectin Type I poly(A) signal (all 2'-MOE, all phosphorothioate, methylation of C not given here)
[11]
  Type I E-selectin message (RT-PCR): greatly reduced
  Type II E-selectin message (RT-PCR): increased
  Type III E-selectin message (RT-PCR): increased

Source: patent US20020049173A1, “Alteration of cellular behavior by antisense modulation of mRNA processing” (priority 1999, published 2002)
